# According to patent publication US20230090255A1, “MAGL INHIBITOR, PREPARATION METHOD THEREFOR AND USE THEREOF” (LUNAN PHARMACEUTICAL GROUP CORPORATION, priority 2019, published 2023):
# Tests used:
# [1] = system: reserpine-induced mice migraine; assay: Reserpine-induced mice migraine; type: in vivo, ICR mice; conditions: for blood coagulation time, in words / level of 5-HT in the brain tissue, in words / times of the tail suspension activity, in words: compared with the model group; for Blood coagulation time: reserpine 0.2 mg/kg sc mice, 1 h after final administration; for brain tissue 5-HT / Times of tail suspension (struggling times within 2 min): reserpine mice; for Times of tail suspension (struggling times within 2 min): 9th day
# [2] = system: mice writhing caused by acetic acid; assay: Mice writhing caused by acetic acid; conditions: for latent time, in words / mice writhing times caused by acetic acid, in words: compared with the model group; for Writhing times: 1 h before 0.7% acetic acid ip, within 20 min; for Latent time: time to first writhing; for Inhibition ratio: writhing inhibition
# [3] = system: mice with inflammatory pain; assay: Pain threshold of mice with inflammatory pain (complete Freund's adjuvant); type: in vivo, SD mice; conditions: for pain threshold of the mice with inflammatory pain, in words: compared with the model group; for Pain threshold: complete Freund's adjuvant paw model
# [4] = system: mice pain response induced by hot plate; assay: Mice pain response induced by hot plate; type: in vivo, ICR mice; conditions: for pain thresholds of the thermal-stimulus mice, in words: compared with the model group; for Pain threshold: hot plate 55°C
# How it was run: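 Female ICR mice (20±2 g) dosed intragastrically for 7 consecutive days. Latency to hind-paw licking on a 55±0.5° C hot plate measured at 30, 60, 90 and 120 min after the last dose, with a 60 s cap. Mice with baseline latency <5 s or >30 s, or jumping, excluded.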
# ulcerative colitis mice = assay: Mice ulcerative colitis (DSS); type: in vivo, BALB/c mice; conditions: for Total times of hematochezia within the four periods / Colon length / IL-1 content: DSS mice; for Colon length: four periods; for IL-1 content: serum, ELISA; for IL-1 content, in words / colon length, in words / total times of hematochezia, in words: compared with the model group
# [5] = high dose 30 mg/kg ig once per day, 0 d
# [6] = high dose 30 mg/kg ig once per day, 1 d
# [7] = high dose 30 mg/kg ig once per day, 3 d
# [8] = high dose 30 mg/kg ig once per day, 7 d
# [9] = low dose 7.5 mg/kg ig once per day, 0 d
# [10] = low dose 7.5 mg/kg ig once per day, 1 d
# [11] = low dose 7.5 mg/kg ig once per day, 3 d
# [12] = low dose 7.5 mg/kg ig once per day, 7 d
# [13] = middle dose 15 mg/kg ig once per day, 0 d
# [14] = middle dose 15 mg/kg ig once per day, 1 d
# [15] = middle dose 15 mg/kg ig once per day, 3 d
# [16] = middle dose 15 mg/kg ig once per day, 7 d
# [17] = high dose 30 mg/kg ig 7 d, 30 min after final administration
# [18] = high dose 30 mg/kg ig 7 d, 60 min
# [19] = high dose 30 mg/kg ig 7 d, 90 min
# [20] = high dose 30 mg/kg ig 7 d, 120 min
# [21] = low dose 7.5 mg/kg ig 7 d, 30 min after final administration
# [22] = low dose 7.5 mg/kg ig 7 d, 60 min
# [23] = low dose 7.5 mg/kg ig 7 d, 90 min
# [24] = low dose 7.5 mg/kg ig 7 d, 120 min
# [25] = middle dose 15 mg/kg ig 7 d, 30 min after final administration
# [26] = middle dose 15 mg/kg ig 7 d, 60 min
# [27] = middle dose 15 mg/kg ig 7 d, 90 min
# [28] = middle dose 15 mg/kg ig 7 d, 120 min
compound,measurement,setting,value
O=C(Nc1cccc(Cl)c1)C1CCN(C(=O)c2cccc(O)c2)CC1 [MAGLZ-II-11],"blood coagulation time, in words",[1],significantly extend
same,"level of 5-HT in the brain tissue, in words",[1],significantly increase
same,"times of the tail suspension activity, in words",[1],significantly increase
same,Blood coagulation time,[1]; high dose 30 mg/kg ig 10 d,336.88±33.09 S
same,Blood coagulation time,[1]; low dose 7.5 mg/kg ig 10 d,222.5±35.52 S
same,Blood coagulation time,[1]; middle dose 15 mg/kg ig 10 d,326.88±45.9 S
same,brain tissue 5-HT,[1]; high dose 30 mg/kg ig 10 d,3.63 ± 5.34 nmol/g
same,Times of tail suspension (struggling times within 2 min),[1]; high dose 30 mg/kg ig,23.00±3.59
same,brain tissue 5-HT,[1]; low dose 7.5 mg/kg ig 10 d,1.54 ± 0.27 nmol/g
same,Times of tail suspension (struggling times within 2 min),[1]; low dose 7.5 mg/kg ig,14.13±1.89
same,brain tissue 5-HT,[1]; middle dose 15 mg/kg ig 10 d,2.10 ± 0.22 nmol/g
same,Times of tail suspension (struggling times within 2 min),[1]; middle dose 15 mg/kg ig,16.13±1.73
same,"latent time, in words",[2],extend
same,"mice writhing times caused by acetic acid, in words",[2],significantly decrease
same,Writhing times,[2]; high dose 30 mg/kg ig,13.6±13.1
same,Latent time,[2]; high dose 30 mg/kg ig,467.8 ± 175.6 s
same,Inhibition ratio,[2]; high dose 30 mg/kg ig,65.4%
same,Writhing times,[2]; low dose 7.5 mg/kg ig,23.4±11.7
same,Latent time,[2]; low dose 7.5 mg/kg ig,379.7 ± 129.3 s
same,Inhibition ratio,[2]; low dose 7.5 mg/kg ig,40.5%
same,Writhing times,[2]; middle dose 15 mg/kg ig,17.5±9.6
same,Latent time,[2]; middle dose 15 mg/kg ig,408.4 ± 128.2 s
same,Inhibition ratio,[2]; middle dose 15 mg/kg ig,55.5%
same,"pain threshold of the mice with inflammatory pain, in words",[3],significantly extend
same,Pain threshold,[3]; [5],12.88 ± 2.27 s
same,Pain threshold,[3]; [6],7.99±0.90^∗∗∗ s
same,Pain threshold,[3]; [7],9.88±1.34^∗∗∗ s
same,Pain threshold,[3]; [8],11.26±1.82^∗∗∗ s
same,Pain threshold,[3]; [9],12.94 ± 2.41 s
same,Pain threshold,[3]; [10],7.55±1.29^∗∗∗ s
same,Pain threshold,[3]; [11],9.00±0.73^∗∗∗ s
same,Pain threshold,[3]; [12],10.26±1.08^∗∗∗ s
same,Pain threshold,[3]; [13],12.80 ± 2.27 s
same,Pain threshold,[3]; [14],7.73±1.10^∗∗∗ s
same,Pain threshold,[3]; [15],9.47±0.79^∗∗∗ s
same,Pain threshold,[3]; [16],10.93±1.62^∗∗∗ s
same,"pain thresholds of the thermal-stimulus mice, in words",[4],significantly extend
same,Pain threshold,[4]; [17],41.43 ± 5.15 s
same,Pain threshold,[4]; [18],46.16 ± 6.63 s
same,Pain threshold,[4]; [19],47.22 ± 5.98 s
same,Pain threshold,[4]; [20],45.49 ± 6.31 s
same,Pain threshold,[4]; [21],37.92 ± 8.83 s
same,Pain threshold,[4]; [22],44.14 ± 7.56 s
same,Pain threshold,[4]; [23],45.93 ± 8.38 s
same,Pain threshold,[4]; [24],43.80 ± 6.12 s
same,Pain threshold,[4]; [25],40.33 ± 8.25 s
same,Pain threshold,[4]; [26],44.87 ± 5.67 s
same,Pain threshold,[4]; [27],46.41 ± 5.36 s
same,Pain threshold,[4]; [28],43.44 ± 5.91 s
same,Total times of hematochezia within the four periods,ulcerative colitis mice; high dose 30 mg/kg ig,24.80±5.43
same,Colon length,ulcerative colitis mice; high dose 30 mg/kg ig,7.68±0.75 cm
same,IL-1 content,ulcerative colitis mice; high dose 30 mg/kg ig,33.83 ± 7.14 pg/mL
same,Total times of hematochezia within the four periods,ulcerative colitis mice; low dose 7.5 mg/kg ig,32.00±4.94
same,Colon length,ulcerative colitis mice; low dose 7.5 mg/kg ig,6.88±0.89 cm
same,IL-1 content,ulcerative colitis mice; low dose 7.5 mg/kg ig,44.57 ± 10.32 pg/mL
same,Total times of hematochezia within the four periods,ulcerative colitis mice; middle dose 15 mg/kg ig,27.20±5.39
same,Colon length,ulcerative colitis mice; middle dose 15 mg/kg ig,7.26±0.67 cm
same,IL-1 content,ulcerative colitis mice; middle dose 15 mg/kg ig,41.40 ± 9.50 pg/mL
same,"IL-1 content, in words",ulcerative colitis mice,decrease
same,"colon length, in words",ulcerative colitis mice,significantly increase
same,"total times of hematochezia, in words",ulcerative colitis mice,reduce
O=C(Nc1cccc(Cl)c1)C1CCN(C(=O)c2cc(O)ccc2F)CC1 [MAGLZ-II-11 (a)],"blood coagulation time, in words",[1],significantly extend
same,"level of 5-HT in the brain tissue, in words",[1],significantly increase
same,"times of the tail suspension activity, in words",[1],significantly increase
same,Blood coagulation time,[1]; high dose 30 mg/kg ig 10 d,300.63±45.26 S
same,Blood coagulation time,[1]; low dose 7.5 mg/kg ig 10 d,136.75±33.22 S
same,Blood coagulation time,[1]; middle dose 15 mg/kg ig 10 d,256.88±42.93 S
same,brain tissue 5-HT,[1]; high dose 30 mg/kg ig 10 d,2.97 ± 0.28 nmol/g
same,Times of tail suspension (struggling times within 2 min),[1]; high dose 30 mg/kg ig,20.75±4.98
same,brain tissue 5-HT,[1]; low dose 7.5 mg/kg ig 10 d,1.35 ± 0.38 nmol/g
same,Times of tail suspension (struggling times within 2 min),[1]; low dose 7.5 mg/kg ig,16.13±3.68
same,brain tissue 5-HT,[1]; middle dose 15 mg/kg ig 10 d,1.86 ± 0.29 nmol/g
same,Times of tail suspension (struggling times within 2 min),[1]; middle dose 15 mg/kg ig,19.88 ± 4.09
same,"latent time, in words",[2],extend
same,"mice writhing times caused by acetic acid, in words",[2],significantly decrease
same,Writhing times,[2]; high dose 30 mg/kg ig,12.5±9.4
same,Latent time,[2]; high dose 30 mg/kg ig,488.8 ± 172.0 s
same,Inhibition ratio,[2]; high dose 30 mg/kg ig,68.2%
same,Writhing times,[2]; low dose 7.5 mg/kg ig,22.6±12.0
same,Latent time,[2]; low dose 7.5 mg/kg ig,401.2 ± 168.3 s
same,Inhibition ratio,[2]; low dose 7.5 mg/kg ig,42.5%
same,Writhing times,[2]; middle dose 15 mg/kg ig,18.6±14.6
same,Latent time,[2]; middle dose 15 mg/kg ig,438.9 ± 230.0 s
same,Inhibition ratio,[2]; middle dose 15 mg/kg ig,52.7%
same,"pain threshold of the mice with inflammatory pain, in words",[3],significantly extend
same,Pain threshold,[3]; [5],12.97 ± 2.32 s
same,Pain threshold,[3]; [6],7.83±1.01^∗∗∗ s
same,Pain threshold,[3]; [7],9.55±1.58^∗∗∗ s
same,Pain threshold,[3]; [8],11.00±161.00^∗∗∗ s
same,Pain threshold,[3]; [9],12.96 ± 2.44 s
same,Pain threshold,[3]; [10],7.38±1.19^∗∗∗ s
same,Pain threshold,[3]; [11],8.87±0.74^∗∗∗ s
same,Pain threshold,[3]; [12],9.91±1.05^∗∗∗ s
same,Pain threshold,[3]; [13],13.03 ± 2.35 s
same,Pain threshold,[3]; [14],7.58±0.84^∗∗∗ s
same,Pain threshold,[3]; [15],9.30±0.75^∗∗∗ s
same,Pain threshold,[3]; [16],10.66±1.30^∗∗∗ s
same,"pain thresholds of the thermal-stimulus mice, in words",[4],significantly extend
same,Pain threshold,[4]; [17],39.45 ± 6.75 s
same,Pain threshold,[4]; [18],46.56 ± 6.35 s
same,Pain threshold,[4]; [19],45.42 ± 6.84 s
same,Pain threshold,[4]; [20],43.73 ± 5.68 s
same,Pain threshold,[4]; [21],36.18 ± 8.50 s
same,Pain threshold,[4]; [22],43.17 ± 7.43 s
same,Pain threshold,[4]; [23],42.83 ± 7.34 s
same,Pain threshold,[4]; [24],42.16 ± 7.05 s
same,Pain threshold,[4]; [25],38.16 ± 7.00 s
same,Pain threshold,[4]; [26],45.47 ± 7.03 s
same,Pain threshold,[4]; [27],43.71 ± 5.87 s
same,Pain threshold,[4]; [28],42.34 ± 7.04 s
same,Total times of hematochezia within the four periods,ulcerative colitis mice; high dose 30 mg/kg ig,27.90±3.73
same,Colon length,ulcerative colitis mice; high dose 30 mg/kg ig,7.56±0.74 cm
same,IL-1 content,ulcerative colitis mice; high dose 30 mg/kg ig,38.61 ± 10.98 pg/mL
same,Total times of hematochezia within the four periods,ulcerative colitis mice; low dose 7.5 mg/kg ig,28.80±7.04
same,Colon length,ulcerative colitis mice; low dose 7.5 mg/kg ig,7.21±1.10 cm
same,IL-1 content,ulcerative colitis mice; low dose 7.5 mg/kg ig,42.01 ± 13.92 pg/mL
same,Total times of hematochezia within the four periods,ulcerative colitis mice; middle dose 15 mg/kg ig,29.10±7.14
same,Colon length,ulcerative colitis mice; middle dose 15 mg/kg ig,7.20±0.97 cm
same,IL-1 content,ulcerative colitis mice; middle dose 15 mg/kg ig,40.70 ± 8.50 pg/mL
same,"IL-1 content, in words",ulcerative colitis mice,decrease
same,"colon length, in words",ulcerative colitis mice,significantly increase
same,"total times of hematochezia, in words",ulcerative colitis mice,reduce
